What is called pKd is the negative decadic logarithm of the Kd, by convention in mol/L. Read a low pKd as a high Kd.

pKd: −log10 of the molar value.

For the experiment, the target named is T1, Asialoglycoprotein receptor 1 (Homo sapiens, UniProt P07306).
T1 sequence (P07306 whole entry): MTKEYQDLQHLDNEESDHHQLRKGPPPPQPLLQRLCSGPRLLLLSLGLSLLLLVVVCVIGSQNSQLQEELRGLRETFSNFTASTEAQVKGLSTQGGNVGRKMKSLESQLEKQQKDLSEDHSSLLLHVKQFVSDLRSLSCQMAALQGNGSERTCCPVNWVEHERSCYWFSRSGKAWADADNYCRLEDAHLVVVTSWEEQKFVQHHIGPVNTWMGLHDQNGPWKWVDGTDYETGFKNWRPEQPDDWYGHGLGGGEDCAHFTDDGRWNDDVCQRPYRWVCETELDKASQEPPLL
In words: ASGPR Measured Using Surface Plasmon Resonance (SPR). The method, then: Recombinant ASGPR protein is first biotinylated using Maleimide-PEG2-biotin reagent (Pierce, 19-fold molar excess) in phosphate-buffered saline (PBS) solution overnight at 4° C. Excess amount of biotin in the reaction mixture is removed by Zeba desalting columns (Thermo). Biotinylation is confirmed by mass spectroscopic analysis of ASGPR. Biotinylated ASGPR is then immobilized on SA sensor chips (GE Healthcare) with an immobilization level ranging from 1500-3000 resonance units (RU). The running buffer is 50 mM Tris, pH7.5, 150 mM NaCl, 50 mM CaCl2), 0.01% P20, 3% DMSO. […] The compounds are diluted 3 folds with total 8 concentration points. Solutions containing serially diluted compounds are injected at a flow rate of 50 μL/min for 60 sec followed by a 180 sec dissociation phase for each concentration. Data is processed using the analysis software in Biacore 8K to perform background subtraction, double referencing and solvent correction.
Compound `OC[C@H]1OC[C@H](Nc2nc(Cl)cs2)[C@@H](O)[C@H]1O` [US20240072809, Compound A99] had a pKd of less than 3.00.

As for `CO[C@@H]1O[C@H](CO)[C@H](O)[C@H](O)[C@H]1Nc1ncns1` [US20240072809, Compound A110], the pKd was more than 4.00.

As to `OC[C@H]1OC[C@@H](Nc2ncns2)[C@@H](O)[C@H]1O` [US20240072809, Compound A147], the pKd was more than 4.00.

`OC[C@H]1OC[C@@H](Nc2nc(Cl)cs2)[C@@H](O)[C@H]1O` [US20240072809, Compound A148] showed a pKd of less than 4.70.

With `OCCC[C@@H]1CO[C@H](CO)[C@H](O)[C@@H]1O` [US20240072809, Compound A162], the pKd is less than 3.00.

The compound `OC[C@H]1OC[C@H](Nc2nc(-c3ccncc3)ns2)[C@@H](O)[C@H]1O` [US20240072809, Compound A319] had a pKd of more than 4.00.

The record behind these values is BindingDB's records for patent US20240072809 (Avilar Therapeutics, 2024).
